In article PMC5629628, “The development of activatable lytic peptides for targeting triple negative breast cancer” (Cell Death Discovery, 2017):

Experiments:
MDA-MB-231 = assay: Cell viability with or without caspase inhibitor Z-VAD-FMK; format: cell-based, human; conditions: MDA-MB-231, 24 h treatment, with or without Z-VAD-FMK
Procedure: 100 μl of 4×10^4/ml cell suspension (MDA-MB-231, MCF-7, HeLa, SK-OV-3) was placed in each well of the 96-well culture plate and allowed to grow in dulbecco's modified eagle medium or Leibovitz medium (L-15) supplemented with 10% fetal bovine serum overnight. The cells were incubated with serial dilution of compounds at 310 K in 5% fetal bovine serum containing media for 24 h supplied with 5% CO2. At the end of the compounds exposure, 20 μl of 3-(4,5-dimethyl-2-thiazolyl)-2,5-diphenyl-2-H-tetrazolium bromide reagent was added and incubated at 310 K for 4 h. The absorbance of formazan product was measured at 490 nm by a microplate reader (PerkinElmer, Waltham, MA, USA). Cells without peptide were treated as control. *P<0.05, **P<0.01, ***P<0.001 compared with vehicle-treated cells. In Z-VAD-FMK assays, *P<0.05, **P<0.01, ***P<0.001 compared with cells without treatment of Z-VAD-FMK.

[1] = system: caspase-3/7 in MDA-MB-231 cells; assay: Caspase-3/7 activation analysis; format: cell-based, human; conditions: MDA-MB-231, 4 h treatment; Uk14 5 μM, Ur11 10 μM, ABT-737 10 μM
Procedure: Cells (MDA-MB-231) were plated 10 000 per well on 96-well plates in medium containing 10% fetal bovine serum and incubated with serial dilution of peptides and ABT-737 for 4 h. Then caspase-3/7 activation was measured by addition of the caspase-Glo 3/7 chemiluminescence reagent in accordance with the manufacturer’s protocol (Promega, Madison, WI, USA).

## CN(C)CC[C@H](CSc1ccccc1)Nc1ccc(S(=O)(=O)NC(=O)c2ccc(N3CCN(Cc4ccccc4-c4ccc(Cl)cc4)CC3)cc2)cc1[N+](=O)[O-] [ABT-737, reference compound]
MDA-MB-231
  effect of caspase inhibitor Z-VAD-FMK on cytotoxic effect: did have an inhibitory effect
[1]
  caspase-3/7 activation: observed
